Laboratory results: PubChem BioAssay (NCI)
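GI50 is the concentration that inhibits growth by half. TGI denotes the concentration required for complete inhibition of growth.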

What was measured:
Test in all cases: growth of human tumour cells (NCI), 384-well format
TK-10 renal = tested on: TK-10 renal
HOP-92 NSCLC = tested on: HOP-92 NSCLC
DU-145 prostate = tested on: DU-145 prostate
OVCAR-5 ovarian = tested on: OVCAR-5 ovarian
SN12C renal = tested on: SN12C renal
A498 renal = tested on: A498 renal
OVCAR-3 ovarian = tested on: OVCAR-3 ovarian
UO-31 renal = tested on: UO-31 renal
SK-OV-3 ovarian = tested on: SK-OV-3 ovarian
HCT-116 colon = tested on: HCT-116 colon
SF-295 CNS = tested on: SF-295 CNS
SF-539 CNS = tested on: SF-539 CNS
LOX IMVI melanoma = tested on: LOX IMVI melanoma
T-47D breast = tested on: T-47D breast
786-0 renal = tested on: 786-0 renal
NCI-H322M lung = tested on: NCI-H322M lung
CCRF-CEM leukemia = tested on: CCRF-CEM leukemia
K-562 leukemia = tested on: K-562 leukemia
UACC-257 melanoma = tested on: UACC-257 melanoma
OVCAR-8 ovarian = tested on: OVCAR-8 ovarian
COLO 205 colon = tested on: COLO 205 colon
MDA-MB-468 breast = tested on: MDA-MB-468 breast
HCT-15 colon = tested on: HCT-15 colon
EKVX NSCLC = tested on: EKVX NSCLC
HCC-2998 colon = tested on: HCC-2998 colon
SNB-19 CNS = tested on: SNB-19 CNS
MDA-MB-435 melanoma = tested on: MDA-MB-435 melanoma
NCI-H522 lung = tested on: NCI-H522 lung
NCI-H460 NSCLC = tested on: NCI-H460 NSCLC
OVCAR-4 ovarian = tested on: OVCAR-4 ovarian
SK-MEL-28 melanoma = tested on: SK-MEL-28 melanoma
MALME-3M melanoma = tested on: MALME-3M melanoma
MDA-MB-231 breast = tested on: MDA-MB-231 breast
A549 NSCLC = tested on: A549 NSCLC
MOLT-4 leukemia = tested on: MOLT-4 leukemia
ACHN renal = tested on: ACHN renal
SK-MEL-5 melanoma = tested on: SK-MEL-5 melanoma
U251 glioblastoma = tested on: U251 glioblastoma
NCI-H23 lung = tested on: NCI-H23 lung
SK-MEL-2 melanoma = tested on: SK-MEL-2 melanoma
HS 578T breast = tested on: HS 578T breast
HOP-62 NSCLC = tested on: HOP-62 NSCLC
CAKI-1 renal = tested on: CAKI-1 renal
NCI/ADR-RES ovarian = tested on: NCI/ADR-RES ovarian
UACC-62 melanoma = tested on: UACC-62 melanoma
HL-60(TB) leukemia = tested on: HL-60(TB) leukemia
SF-268 CNS = tested on: SF-268 CNS
M14 melanoma = tested on: M14 melanoma
MCF7 breast = tested on: MCF7 breast
BT-549 breast = tested on: BT-549 breast
PC-3 prostate = tested on: PC-3 prostate

`CCOC(=O)c1ccc2[nH]c(Cc3[nH]c4ccc(C(=O)OCC)cc4c3C)c(C)c2c1` showed a GI50 (TK-10 renal) of 0.498 µM, a TGI (TK-10 renal) of 11.4 µM and a GI50 (HOP-92 NSCLC) of 2.07 µM. It also gave a TGI (HOP-92 NSCLC) of 7.98 µM, a GI50 (DU-145 prostate) of 3.05 µM and a TGI (DU-145 prostate) of 17 µM. For the same molecule, the GI50 (OVCAR-5 ovarian) was 2.73 µM, the TGI (OVCAR-5 ovarian) was 32.1 µM and the GI50 (SN12C renal) was 3.08 µM. For the same molecule, the TGI (SN12C renal) was 12.6 µM, the GI50 (A498 renal) was 2.36 µM and the TGI (A498 renal) was 10.6 µM. The GI50 (OVCAR-3 ovarian) was 2.97 µM, the TGI (OVCAR-3 ovarian) was 12.7 µM and the GI50 (UO-31 renal) was 3.36 µM. It also gave a TGI (UO-31 renal) of 18.9 µM, a GI50 (SK-OV-3 ovarian) of 4.64 µM and a TGI (SK-OV-3 ovarian) of 18.6 µM. The GI50 (HCT-116 colon) was 0.472 µM, the TGI (HCT-116 colon) was 2.41 µM and the GI50 (SF-295 CNS) was 0.464 µM. It also gave a TGI (SF-295 CNS) of 4.59 µM, a GI50 (SF-539 CNS) of 1.3 µM and a TGI (SF-539 CNS) of 7.85 µM. For the same molecule, the GI50 (LOX IMVI melanoma) was 0.481 µM, the TGI (LOX IMVI melanoma) was 1.91 µM and the GI50 (T-47D breast) was 2.88 µM. The TGI (T-47D breast) was 9.2 µM, the GI50 ([…]-0 renal) was 1.4 µM and the TGI (786-0 renal) was 11.7 µM. The GI50 (NCI-H322M lung) was 4.26 µM, the TGI (NCI-H322M lung) was 19.7 µM and the GI50 (CCRF-CEM leukemia) was 0.763 µM. It also gave a TGI (CCRF-CEM leukemia) of 11.7 µM, a GI50 (K-562 leukemia) of 0.356 µM and a TGI (K-562 leukemia) of 12.3 µM. For the same molecule, the GI50 (UACC-257 melanoma) was 9.7 µM, the TGI (UACC-257 melanoma) was 25.3 µM and the GI50 (OVCAR-8 ovarian) was 1.56 µM. For the same molecule, the TGI (OVCAR-8 ovarian) was 11.1 µM, the GI50 (COLO 205 colon) was 0.344 µM and the TGI (COLO 205 colon) was 14.5 µM. It also gave a GI50 (MDA-MB-468 breast) of 1.08 µM, a TGI (MDA-MB-468 breast) of 7.27 µM and a GI50 (HCT-15 colon) of 0.0286 µM. It also gave a TGI (HCT-15 colon) of 6.55 µM, a GI50 (EKVX NSCLC) of 4.62 µM and a TGI (EKVX NSCLC) of 18.2 µM. It also gave a GI50 (HCC-2998 colon) of 1.56 µM, a TGI (HCC-2998 colon) of 16.1 µM and a GI50 (SNB-19 CNS) of 5.4 µM. For the same molecule, the TGI (SNB-19 CNS) was 21.3 µM, the GI50 (MDA-MB-435 melanoma) was 4.68 µM and the TGI (MDA-MB-435 melanoma) was 61.4 µM. The GI50 (NCI-H522 lung) was 1.69 µM, the TGI (NCI-H522 lung) was 12.1 µM and the GI50 (NCI-H460 NSCLC) was 0.281 µM. The TGI (NCI-H460 NSCLC) was 2.07 µM, the GI50 (OVCAR-4 ovarian) was 3.11 µM and the TGI (OVCAR-4 ovarian) was 14.3 µM. The GI50 (SK-MEL-28 melanoma) was 3.4 µM, the TGI (SK-MEL-28 melanoma) was 23.1 µM and the GI50 (MALME-3M melanoma) was 1.63 µM. For the same molecule, the TGI (MALME-3M melanoma) was 6.41 µM, the GI50 (MDA-MB-231 breast) was 0.601 µM and the TGI (MDA-MB-231 breast) was 12.1 µM. It also gave a GI50 (A549 NSCLC) of 1.92 µM, a TGI (A549 NSCLC) of 14.6 µM and a GI50 (MOLT-4 leukemia) of 0.0514 µM. It also gave a TGI (MOLT-4 leukemia) of 0.274 µM, a GI50 (ACHN renal) of 1.8 µM and a TGI (ACHN renal) of 8.24 µM. It also gave a GI50 (SK-MEL-5 melanoma) of 1.23 µM, a TGI (SK-MEL-5 melanoma) of 2.8 µM and a GI50 (U251 glioblastoma) of 1.13 µM. The TGI (U251 glioblastoma) was 6.01 µM.
`Nc1nc(F)nc2c1ncn2C1OC(COP(=O)(O)O)C(O)C1O` (centres undefined) showed a GI50 (NCI-H23 lung) of 11.7 µM, a TGI (NCI-H23 lung) of 32.9 µM and a GI50 (SK-MEL-2 melanoma) of 51.7 µM. The TGI (SK-MEL-2 melanoma) was 84.5 µM, the GI50 (HOP-92 NSCLC) was 30.9 µM and the GI50 (DU-145 prostate) was 21.6 µM. For the same molecule, the TGI (DU-145 prostate) was 93.8 µM, the GI50 (OVCAR-5 ovarian) was 57.5 µM and the GI50 (HS 578T breast) was 55 µM. The GI50 (SN12C renal) was 4.96 µM, the TGI (SN12C renal) was 21.8 µM and the GI50 (A498 renal) was 31.2 µM. For the same molecule, the GI50 (OVCAR-3 ovarian) was 58.4 µM, the GI50 (UO-31 renal) was 30.6 µM and the GI50 (HOP-62 NSCLC) was 5.8 µM. The TGI (HOP-62 NSCLC) was 21.2 µM, the GI50 (SK-OV-3 ovarian) was 24 µM and the GI50 (CAKI-1 renal) was 25.3 µM. The GI50 (HCT-116 colon) was 19.3 µM, the GI50 (NCI/ADR-RES ovarian) was 4.74 µM and the TGI (NCI/ADR-RES ovarian) was 41.2 µM. The GI50 (LOX IMVI melanoma) was 45.4 µM, the GI50 (T-47D breast) was 83 µM and the GI50 ([…]-0 renal) was 33 µM. It also gave a GI50 (CCRF-CEM leukemia) of 1.91 µM, a TGI (CCRF-CEM leukemia) of 3.57 µM and a GI50 (UACC-62 melanoma) of 23.2 µM. It also gave a TGI (UACC-62 melanoma) of 54.1 µM, a GI50 (K-562 leukemia) of 58.4 µM and a GI50 (HL-60(TB) leukemia) of 3.71 µM. The TGI (HL-60(TB) leukemia) was 11 µM, the GI50 (SF-268 CNS) was 48.3 µM and the GI50 (OVCAR-8 ovarian) was 3.16 µM. The TGI (OVCAR-8 ovarian) was 15.8 µM, the GI50 (MDA-MB-468 breast) was 71 µM and the GI50 (HCT-15 colon) was 39.9 µM. It also gave a GI50 (SNB-19 CNS) of 20.6 µM, a GI50 (MDA-MB-435 melanoma) of 49.9 µM and a GI50 (M14 melanoma) of 8.5 µM. It also gave a TGI (M14 melanoma) of 37.3 µM, a GI50 (MCF7 breast) of 41.2 µM and a GI50 (NCI-H522 lung) of 59.7 µM. It also gave a GI50 (SK-MEL-28 melanoma) of 7.83 µM, a GI50 (MALME-3M melanoma) of 25.1 µM and a GI50 (MDA-MB-231 breast) of 32.9 µM. It also gave a GI50 (A549 NSCLC) of 36.1 µM, a GI50 (MOLT-4 leukemia) of 1.53 µM and a TGI (MOLT-4 leukemia) of 2.89 µM. It also gave a GI50 (BT-549 breast) of 20 µM, a TGI (BT-549 breast) of 96.9 µM and a GI50 (ACHN renal) of 32.9 µM. The GI50 (U251 glioblastoma) was 90.2 µM and the GI50 (PC-3 prostate) was 37.6 µM.
